In patent US20120142685A1, “ORGANIC COMPOUNDS” (priority 2007, published 2012):
pIC50: −log10 of the molar value. Read-outs that look alike come from different tables or passages of the source.

Assays:
protein kinase D1 (PKD1) = biological target: T1, protein kinase D1 (PKD1) (Homo sapiens, UniProt Q15139); test: PKD1 TR-FRET (LANCE) kinase assay; format: biochemical; details: full length wild-type enzyme, 20 μM ATP; read-out: Inhibitory Activity PKD1
T1 construct: This assay is performed with full length wild-type enzyme that is expressed and purified from Sf9 insect cells; made in house; host or cells: Sf9 insect cells
T1 sequence (Q15139 1-912): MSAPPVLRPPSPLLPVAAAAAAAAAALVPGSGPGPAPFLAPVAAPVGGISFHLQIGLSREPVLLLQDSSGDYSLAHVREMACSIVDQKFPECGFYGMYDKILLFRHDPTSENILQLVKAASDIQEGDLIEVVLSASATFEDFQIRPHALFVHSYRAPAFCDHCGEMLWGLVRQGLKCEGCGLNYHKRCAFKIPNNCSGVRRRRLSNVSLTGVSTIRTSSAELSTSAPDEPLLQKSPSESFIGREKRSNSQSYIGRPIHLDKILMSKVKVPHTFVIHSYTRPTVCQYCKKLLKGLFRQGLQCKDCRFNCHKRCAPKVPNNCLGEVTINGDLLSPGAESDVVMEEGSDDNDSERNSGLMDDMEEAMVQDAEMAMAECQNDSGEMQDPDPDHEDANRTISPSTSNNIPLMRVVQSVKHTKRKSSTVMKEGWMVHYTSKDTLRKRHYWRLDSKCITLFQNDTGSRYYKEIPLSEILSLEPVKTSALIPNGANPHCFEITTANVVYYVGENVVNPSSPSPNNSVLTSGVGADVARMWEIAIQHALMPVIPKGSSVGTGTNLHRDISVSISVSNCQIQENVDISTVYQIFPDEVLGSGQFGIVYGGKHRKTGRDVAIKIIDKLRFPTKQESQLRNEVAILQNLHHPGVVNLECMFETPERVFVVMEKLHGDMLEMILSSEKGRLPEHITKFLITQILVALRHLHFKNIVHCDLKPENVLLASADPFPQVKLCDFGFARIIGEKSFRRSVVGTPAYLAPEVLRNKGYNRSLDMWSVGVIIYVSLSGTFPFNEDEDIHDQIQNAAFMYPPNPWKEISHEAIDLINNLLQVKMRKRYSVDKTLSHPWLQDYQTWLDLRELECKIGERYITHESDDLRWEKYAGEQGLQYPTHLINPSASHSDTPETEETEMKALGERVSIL
From the text: The assay to measure protein kinase D1 (PKD1) activity is a time-resolved fluorescence resonance transfer (TR-FRET) assay using PerkinElmer's LANCE™ technology. In this case, a biotinylated syntide-2 peptide is used as the substrate in this reaction. Phosphorylation of the syntide-2 substrate is detected by a specific antibody that recognizes the phosphorylated peptide. A second fluorophore, APC, is conjugated to streptavidin that binds the biotinylated syntide-2 peptide. For detection, the europium fluorophore can be excited by 340 nM light which then emits at 615 nM. Therefore, when the europium labeled secondary antibody binds on the phosphorylated peptide, it is brought into close contact with the APC and excites this fluorophore. The APC emission is at 665 nm and the 665 nM:615 nM ratio is a readout of PKD1 activity.
This assay is performed with full length wild-type enzyme that is expressed and purified from Sf9 insect cells. The reaction buffer consists of 35 mM Tris-HCl pH7.5, 5 mM MgCl2, 0.02% Tween-20, 20 μM ATP, 1 mM DTT and 0.2 μg/mL PKD1 enzyme. The enzyme reaction is initiated by the addition of 2 μM syntide-2 peptide substrate and the reaction carried out for 50 minutes at room temperature. The reaction is stopped by a stop/detection buffer consisting of 50 mM EDTA, 0.18 mg/mL rabbit polyclonal anti-phospho syntide-2 antibody, 0.5 nM europium labeled anti-rabbit IgG and 10 nM streptavidin conjugated APC. After a one hour incubation with the stop/detection buffer, the reaction is read on an Envision 2100 Reader using a LANCE™ Eu/APC dual protocol. As described above, a 665 nM:615 nM ratio is determined to measure substrate phosphorylation and enzyme activity. Compounds are typically tested in an 11 point dose response fashion in triplicate for each concentration used. IC50 values are calculated using an Activity Base (IDBS) software program.

HDAC5 nuclear export = HDAC5 nuclear export assay in neonatal rat ventricular myocytes (GFP-HDAC5, PGF2α stimulated); format: cell-based; details: Ventricular myocyte, 2 h; for IC50: read-out: Inhibitory Activity HDAC (nM); for pIC50: NRVMs, GFP-HDAC5, PGF2α stimulation two hours, read-out: Inhibitory Activity HDAC
Description: Compounds are evaluated in the HDAC5 nuclear […] assay, a 384-well plate-based assay that enables high throughput screening (HTS) to identify small molecules that block agonist-dependent nuclear export of HDAC5. This assay employs the Cellomics High Content Imaging platform (Giuliano & Taylor 1998) and adenovirus encoding green fluorescent protein (GFP) tagged HDAC5. Neonatal rat ventricular myocytes (NRVMs) are infected with GFP-HDAC5 encoding virus and plated on gelatin-coated 384-well dishes. Cells are exposed to compound and stimulated with an prostaglandin (PGF2α), which is a potent stimulus for HDAC5 nuclear export. Following two hours of stimulation, cells are fixed and GFP-HDAC5 localization quantified using the Cellomics system, which provides a read-out of relative fluorescence intensity in the cytoplasmic versus nuclear compartment.

Compound	pIC50 (protein kinase D1 (PKD1))	IC50 (HDAC5 nuclear export) [nM]	pIC50 (HDAC5 nuclear export)
CN(C)CCNc1nc(-c2ccnc(NC3CCCCC3)c2)cc2cnccc12 [Example 8, N-[3-(2-Cyclohexylaminopyridin-4-yl)-[2,6]naphthyridin-1-yl]-N′,N′-dimethylethane-1,2-diamine]	7.26	–	–
CC(C)Nc1cc(-c2cc3cnccc3c(NCCO)n2)ccn1 [Example 6, 2-[3-(2-Isopropylaminopyridin-4-yl)-[2,6]naphthyridin-1-ylamino]ethanol]	6.81	–	–
O=C(NC1CC1)C1CCN(c2nc(-c3ccnc(NC4CCOCC4)c3)cc3cnccc23)CC1 [Example 17, 1-{3-[2-(Tetrahydropyran-4-ylamino)pyridin-4-yl]-[2,6]naphthyridin-1-yl}piperidine-4-carboxylic acid cyclopropylamide]	8.70	88	–
CNc1cc(-c2cc3cnccc3c(NC)n2)ccn1 [Example 2, 1-Methylamino-3-(2-methylaminopyridin-4-yl)-[2,6]-naphthyridine]	6.08	–	–
c1cc2c(NC3CCNC3)nc(-c3ccnc(NC4CCCCC4)c3)cc2cn1 (centres unmarked) [Example 14, [3-(2-Cyclohexylaminopyridin-4-yl)-[2,6]naphthyridin-1-yl]pyrrolidin-3-ylamine]	9.00	–	7.44
COCCNc1cc(-c2cc3cnccc3c(N3CCNCC3)n2)ccn1 [Example 21, (2-Methoxyethyl)-[4-(1-piperazin-1-yl-[2,6]naphthyridin-3-yl)-pyridin-2-yl]amine]	7.85	–	6.43
NC(=O)C1CCN(c2nc(-c3ccnc(NC4CCCCC4)c3)cc3cnccc23)CC1 [Example 10, 1-[3-(2-Cyclohexylaminopyridin-4-yl)-[2,6]naphthyridin-1-yl]piperidine-4-carboxylic acid amide]	7.08	–	6.69
CN1CCN(c2nc(-c3ccnc(NC4CCCCC4)c3)cc3cnccc23)CC1 [Example 13, Cyclohexyl-{4-[1-(4-methylpiperazin-1-yl)-[2,6]naphthyridin-3-yl]pyridin-2-yl}amine]	8.70	206	–
Cn1ccc(Nc2cc(-c3cc4cnccc4c(N4CCC(C(N)=O)CC4)n3)ccn2)n1 [Example 19, 1-{3-[2-(1-Methyl-1H-pyrazol-3-ylamino)pyridin-4-yl]-[2,6]naphthyridin-1-yl}piperidine-4-carboxylic acid amide]	9.40	–	7.92
CN(C)CC1CCN(c2nc(-c3ccnc(NC4CCCCC4)c3)cc3cnccc23)CC1 [Example 12, Cyclohexyl-{4-[1-(4-dimethylaminomethylpiperidin-1-yl)-[2,6]naphthyridin-3-yl]pyridin-2-yl}amine]	6.68	–	–
CN(C)CCNc1nc(-c2ccnc(Nc3ccccc3)c2)cc2cnccc12 [Example 9, N,N-Dimethyl-N′-[3-(2-phenylaminopyridin-4-yl)-[2,6]naphthyridin-1-yl]-ethane-1,2-diamine]	7.39	–	6.12
CCNC(=O)N1CCN(c2nc(-c3ccnc(Nc4ccn(C)n4)c3)cc3cnccc23)CC1 [Example 18, 4-{3-[2-(1-Methyl-1H-pyrazol-3-ylamino)pyridin-4-yl]-[2,6]naphthyridin-1-yl}piperazine-1-carboxylic acid ethylamide]	7.70	534	–
c1cc2c(NC3CCCNC3)nc(-c3ccnc(NC4CCCCC4)c3)cc2cn1 (centres unmarked) [Example 15, [3-(2-Cyclohexylaminopyridin-4-yl)-[2,6]naphthyridin-1-yl]piperidin-3-ylamine]	7.85	605	–
Cn1ccc(Nc2cc(-c3cc4cnccc4c(N4CCC5(CCNC5=O)CC4)n3)ccn2)n1 [Example 20, 8-{3-[2-(1-Methyl-1H-pyrazol-3-ylamino)pyridin-4-yl]-[2,6]naphthyridin-1-yl}-2,8-diaza-spiro[4.5]decan-1-one]	7.77	–	6.44
c1ccc(Nc2cc(-c3cc4cnccc4c(N4CCNCC4)n3)ccn2)cc1 [Example 4, Phenyl-[4-(1-piperazin-1-yl-[2,6]naphthyridin-3-yl)pyridin-2-yl]amine]	7.96	2	–
CC(=O)N1CCN(c2nc(-c3ccnc(NC4CCCCC4)c3)cc3cnccc23)CC1 [Example 11, 1-{4-[3-(2-Cyclohexylaminopyridin-4-yl)-[2,6]naphthyridin-1-yl]piperazin-1-yl}ethanone]	6.73	–	–
c1cc2c(N3CCNCC3)nc(-c3ccnc(NC4CCCCC4)c3)cc2cn1 [Example 3, Cyclohexyl-[4-(1-piperazin-1-yl-[2,6]naphthyridin-3-yl)pyridin-2-yl]amine]	9.22	–	7.49
OCCNc1nc(-c2ccnc(NC3CCCCC3)c2)cc2cnccc12 [Example 5, 2-[3-(2-Cyclohexylaminopyridin-4-yl)-[2,6]naphthyridin-1-ylamino]ethanol]	6.42	–	–
O=C(NCCO)C1CCN(c2nc(-c3ccnc(NC4CCOCC4)c3)cc3cnccc23)CC1 [Example 16, 1-{3-[2-(Tetrahydropyran-4-ylamino)pyridin-4-yl]-[2,6]naphthyridin-1-yl}piperidine-4-carboxylic acid (2-hydroxyethyl)amide]	8.70	–	7.22
COc1cccc(Nc2cc(-c3cc4cnccc4c(NCCO)n3)ccn2)c1 [Example 7]	7.26	–	7.07
CNc1cc(-c2cc3cnccc3c(NCCCO)n2)ccn1 [Example 1]	6.42	–	–
